pKi: −log10 of the molar value.
These molecules were tested against GHS-R (Homo sapiens, UniProt Q92847) (assay: GHS-R antagonist activity (Ki) in a cell based assay).
Procedure: Cell-Based Activity Assays. For example, the ability of the compound to modulate accumulation of a second messenger signaling component downstream of GHS-R can be evaluated. For example, inositol phosphates (IP), as a result of Gq signaling in a mammalian cell, e.g., a Cos-7 cells. Other tissue culture cells, Xenopus oocytes, and primary cells can also be used.
Phosphatidylinositol turnover assay. One day after transfection COS-7 cells are incubated for 24 hours with 5 μCi of [^3H]-myo-inositol in 1 ml medium supplemented with 10% fetal calf serum, 2 mM glutamine and 0.01 mg/ml gentamicin per well. Cells are then washed twice in buffer, 20 mM HEPES, pH 7.4, supplemented with 140 mM NaCl, 5 mM KCl, 1 mM MgSO4, 1 mM CaCl2, 10 mM glucose, 0.05% (w/v) bovine serum; and incubated in 0.5 ml buffer supplemented with 10 mM LiCl at 37° C. for 30 min. For some assays, it is also useful to incubate the cells with adenosine deaminase ADA (200 U/mg, Boehringer Mannheim, Germany) for 30 min in a concentration of 1 U/ml.
After incubation with the compound of interest for 45 min at 37° C., cells are extracted with 10% ice-cold perchloric acid and placed on ice for 30 min. The resulting supernatants are neutralized with KOH in HEPES buffer, and [^3H]-inositol phosphate is purified on Bio-Rad AG 1-X8 anion exchange resin as described. Assays can be run in duplicate, triplicate, etc. […]

Chain of GHS-R (Q92847 whole entry, species assumed): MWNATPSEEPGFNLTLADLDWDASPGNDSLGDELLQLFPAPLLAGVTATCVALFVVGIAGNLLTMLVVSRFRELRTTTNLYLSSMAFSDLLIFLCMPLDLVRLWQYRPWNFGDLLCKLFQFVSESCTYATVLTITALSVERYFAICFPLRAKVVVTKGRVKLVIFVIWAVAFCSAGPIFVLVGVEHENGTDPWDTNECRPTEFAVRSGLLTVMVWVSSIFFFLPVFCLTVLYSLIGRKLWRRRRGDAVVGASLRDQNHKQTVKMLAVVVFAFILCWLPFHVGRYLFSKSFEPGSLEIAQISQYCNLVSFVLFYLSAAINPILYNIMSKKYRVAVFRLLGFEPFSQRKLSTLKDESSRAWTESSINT

Compared with CCN(CC)CCCS(=O)(=O)N[C@H](CCc1ccccc1)c1nc(Cc2ccc3c(c2)OCO3)no1 [Compound 55, 3-Diethylamino-propane-1-sulfonic acid [(R)-1-(3-benzo[1,3]dioxol-5-ylmethyl-[1,2,4]oxadiazol-5-yl)-3-phenyl-propyl]-amide], CCN(CC)CCS(=O)(=O)N[C@H](CCc1ccccc1)c1nc(Cc2ccc3c(c2)OCO3)no1 [Compound 81, 2-Diethylamino-ethanesulfonic acid [(R)-1-(3-benzo[1,3]dioxol-5-ylmethyl-[1,2,4]oxadiazol-5-yl)-3-phenyl-propyl]-amide] is lower in pKi: over 7.00 for the first, 6.30 to 7.00 for the second.

CCN(CC)CCCS(=O)(=O)N[C@H](CCc1ccccc1)c1nc(Cc2ccc(F)c(F)c2)n[nH]1 [Compound 56, 3-Diethylamino-propane-1-sulfonic acid {(R)-1-[5-(3,4-difluoro-benzyl)-2H-[1,2,4]triazol-3-yl]-3-phenyl-propyl}-amide] and CCN(CC)CCCS(=O)(=O)N[C@H](CCc1ccccc1)c1nc(-c2cc(F)ccc2F)n[nH]1 [Compound 63, 3-Diethylamino-propane-1-sulfonic acid {(R)-1-[5-(2,5-difluoro-phenyl)-2H-[1,2,4]triazol-3-yl]-3-phenyl-propyl}-amide] fall in the same range of pKi: 6.30 to 7.00 for the first, 6.30 to 7.00 for the second.

CCN(CC)CCCS(=O)(=O)N[C@H](CCc1ccccc1)c1nc(-c2ccc(Cl)cc2Cl)n[nH]1 [Compound 58, 3-Diethylamino-propane-1-sulfonic acid {(R)-1-[5-(2,4-dichloro-phenyl)-2H-[1,2,4]triazol-3-yl]-3-phenyl-propyl}-amide] and CCN(CC)CCCS(=O)(=O)N[C@H](CCc1ccccc1)c1nc(-c2cccc(Cl)c2)n[nH]1 [Compound 70, 3-Diethylamino-propane-1-sulfonic acid {(R)-1-[5-(3-chloro-phenyl)-2H-[1,2,4]triazol-3-yl]-3-phenyl-propyl}-amide] cannot be ordered by pKi: over 7.00 for the first, over 7.00 for the second.

Compared with CCN(CC)CCCS(=O)(=O)N[C@H](CCc1ccccc1)c1nc(-c2ccc(Br)cc2)no1 [Compound 59, 3-Diethylamino-propane-1-sulfonic acid {(R)-1-[3-(4-bromo-phenyl)-[1,2,4]oxadiazol-5-yl]-3-phenyl-propyl}-amide], CCN(CC)CCS(=O)(=O)N[C@H](CCc1ccccc1)c1nc(-c2ccc(Br)cc2)no1 [Compound 79, 2-Diethylamino-ethanesulfonic acid {(R)-1-[3-(4-bromo-phenyl)-[1,2,4]oxadiazol-5-yl]-3-phenyl-propyl}-amide] is lower in pKi: over 7.00 for the first, 6.30 to 7.00 for the second. The first binds more tightly here.

CCN(CC)CCCS(=O)(=O)N[C@H](CCc1ccccc1)c1nc(CCOC)no1 [Compound 60, 3-Diethylamino-propane-1-sulfonic acid {(R)-1-[3-(2-methoxy-ethyl)-[1,2,4]oxadiazol-5-yl]-3-phenyl-propyl}-amide] and CCN(CC)CCS(=O)(=O)N[C@H](CCc1ccccc1)c1nc(CCOC)no1 [Compound 78, 2-Diethylamino-ethanesulfonic acid {(R)-1-[3-(2-methoxy-ethyl)-[1,2,4]oxadiazol-5-yl]-3-phenyl-propyl}-amide] fall in the same range of pKi: 6.00 to 6.30 for the first, 6.00 to 6.30 for the second.

Compared with CCN(CC)CCCS(=O)(=O)N[C@H](CCc1ccccc1)c1nc(-c2cccc(C)c2)n[nH]1 [Compound 61, 3-Diethylamino-propane-1-sulfonic acid [(R)-3-phenyl-1-(5-m-tolyl-2H-[1,2,4]triazol-3-yl)-propyl]-amide], CCN(CC)CCCS(=O)(=O)N[C@H](CCc1ccccc1)c1nc(-c2ccc(OC)c(OC)c2)n[nH]1 [Compound 80, 3-Diethylamino-propane-1-sulfonic acid {(R)-1-[5-(3,4-dimethoxy-phenyl)-2H-[1,2,4]triazol-3-yl]-3-phenyl-propyl}-amide] is lower in pKi: over 7.00 for the first, 6.30 to 7.00 for the second.

CCN(CC)CCCS(=O)(=O)N[C@H](CCc1ccccc1)c1nc(Cc2cccc(F)c2)no1 [Compound 62, 3-Diethylamino-propane-1-sulfonic acid {(R)-1-[3-(3-fluoro-benzyl)-[1,2,4]oxadiazol-5-yl]-3-phenyl-propyl}-amide] and CCN(CC)CCS(=O)(=O)N[C@H](CCc1ccccc1)c1nc(Cc2cccc(F)c2)no1 [Compound 82, 2-Diethylamino-ethanesulfonic acid {(R)-1-[3-(3-fluoro-benzyl)-[1,2,4]oxadiazol-5-yl]-3-phenyl-propyl}-amide] cannot be ordered by pKi: over 7.00 for the first, over 7.00 for the second.

First: CCN(CC)CCCS(=O)(=O)N[C@H](CCc1ccccc1)c1nc(-c2cccc(Br)c2)no1 [Compound 64, 3-Diethylamino-propane-1-sulfonic acid {(R)-1-[3-(3-bromo-phenyl)-[1,2,4]oxadiazol-5-yl]-3-phenyl-propyl}-amide]
Second: CCN(CC)CCS(=O)(=O)N[C@H](CCc1ccccc1)c1nc(-c2cccc(Br)c2)no1 [Compound 76, 2-Diethylamino-ethanesulfonic acid {(R)-1-[3-(3-bromo-phenyl)-[1,2,4]oxadiazol-5-yl]-3-phenyl-propyl}-amide]
The pKi of the first is higher: over 7.00 for the first, at most 6.00 for the second. The first binds more tightly here.

CCN(CC)CCCS(=O)(=O)N[C@H](CCc1ccccc1)c1nc(-c2ccc([N+](=O)[O-])cc2)n[nH]1 [Compound 65, 3-Diethylamino-propane-1-sulfonic acid {(R)-1-[5-(4-nitro-phenyl)-2H-[1,2,4]triazol-3-yl]-3-phenyl-propyl}-amide] and CCN(CC)CCCS(=O)(=O)N[C@H](CCc1ccccc1)c1nc(-c2ccc(F)cc2)no1 [Compound 66, 3-Diethylamino-propane-1-sulfonic acid {(R)-1-[3-(4-fluoro-phenyl)-[1,2,4]oxadiazol-5-yl]-3-phenyl-propyl}-amide] cannot be ordered by pKi: over 7.00 for the first, over 7.00 for the second.

Compared with CCN(CC)CCCS(=O)(=O)N[C@H](CCc1ccccc1)c1nc(-c2ccc(Br)cc2C)no1 [Compound 67, 3-Diethylamino-propane-1-sulfonic acid {(R)-1-[3-(4-bromo-2-methyl-phenyl)-[1,2,4]oxadiazol-5-yl]-3-phenyl-propyl}-amide], CCN(CC)CCS(=O)(=O)N[C@H](CCc1ccccc1)c1nc(-c2ccc(Br)cc2C)no1 [Compound 85, 2-Diethylamino-ethanesulfonic acid {(R)-1-[3-(4-bromo-2-methyl-phenyl)-[1,2,4]oxadiazol-5-yl]-3-phenyl-propyl}-amide] is lower in pKi: 6.30 to 7.00 for the first, at most 6.00 for the second. The first binds more tightly here.

CCN(CC)CCCS(=O)(=O)N[C@H](CCc1ccccc1)c1nc(Cc2ccccc2C)no1 [Compound 68, 3-Diethylamino-propane-1-sulfonic acid {(R)-1-[3-(2-methyl-benzyl)-[1,2,4]oxadiazol-5-yl]-3-phenyl-propyl}-amide] and CCN(CC)CCCS(=O)(=O)N[C@H](CCc1ccccc1)c1nc(Cc2ccccc2F)no1 [Compound 72, 3-Diethylamino-propane-1-sulfonic acid {(R)-1-[3-(2-fluoro-benzyl)-[1,2,4]oxadiazol-5-yl]-3-phenyl-propyl}-amide] cannot be ordered by pKi: over 7.00 for the first, over 7.00 for the second.

CCN(CC)CCCS(=O)(=O)N[C@H](CCc1ccccc1)c1nc(-c2ccc(OC)cc2)no1 [Compound 69, 3-Diethylamino-propane-1-sulfonic acid {(R)-1-[3-(4-methoxy-phenyl)-[1,2,4]oxadiazol-5-yl]-3-phenyl-propyl}-amide] and CCN(CC)CCCS(=O)(=O)N[C@H](CCc1ccccc1)c1nc(-c2ccc(C)cc2)no1 [Compound 71, 3-Diethylamino-propane-1-sulfonic acid [(R)-3-phenyl-1-(3-p-tolyl-[1,2,4]oxadiazol-5-yl)-propyl]-amide] cannot be ordered by pKi: over 7.00 for the first, over 7.00 for the second.

CCN(CC)CCCS(=O)(=O)N[C@H](CCc1ccccc1)c1nc(Cc2c(Cl)cccc2Cl)no1 [Compound 73, 3-Diethylamino-propane-1-sulfonic acid {(R)-1-[3-(2,6-dichloro-benzyl)-[1,2,4]oxadiazol-5-yl]-3-phenyl-propyl}-amide] and CCN(CC)CCCS(=O)(=O)N[C@H](CCc1ccccc1)c1nc(Cc2cccc(Br)c2)no1 [Compound 74, 3-Diethylamino-propane-1-sulfonic acid {(R)-1-[3-(3-bromo-benzyl)-[1,2,4]oxadiazol-5-yl]-3-phenyl-propyl}-amide] cannot be ordered by pKi: over 7.00 for the first, over 7.00 for the second.

First: CCN(CC)CCCS(=O)(=O)N[C@H](CCc1ccccc1)c1nc(Cc2ccccc2Br)no1 [Compound 75, 3-Diethylamino-propane-1-sulfonic acid {(R)-1-[3-(2-bromo-benzyl)-[1,2,4]oxadiazol-5-yl]-3-phenyl-propyl}-amide]
Second: CCN(CC)CCS(=O)(=O)N[C@H](CCc1ccccc1)c1nc(Cc2ccc(Br)cc2)no1 [Compound 84, 2-Diethylamino-ethanesulfonic acid {(R)-1-[3-(4-bromo-benzyl)-[1,2,4]oxadiazol-5-yl]-3-phenyl-propyl}-amide]
The pKi of the first is higher: over 7.00 for the first, 6.30 to 7.00 for the second. The first binds more tightly here.

First: CCN(CC)CCS(=O)(=O)N[C@H](CCc1ccccc1)c1nc(-c2cnccc2C)no1 [Compound 77, 2-Diethylamino-ethanesulfonic acid {(R)-1-[3-(4-methyl-pyridin-3-yl)-[1,2,4]oxadiazol-5-yl]-3-phenyl-propyl}-amide]
Second: CCN(CC)CCCS(=O)(=O)N[C@H](CCc1ccccc1)c1nc(-c2cnccc2C)no1 [Compound 83, 3-Diethylamino-propane-1-sulfonic acid {(R)-1-[3-(4-methyl-pyridin-3-yl)-[1,2,4]oxadiazol-5-yl]-3-phenyl-propyl}-amide]
The pKi of the first is lower: at most 6.00 for the first, 6.30 to 7.00 for the second. The second binds more tightly here.
